These results are taken from patent US11135234B2, “Effective aminoglycoside antibiotic for multidrug-resistant bacteria” (MICROBIAL CHEMISTRY RESEARCH FOUNDATION, priority 2015, dated 2021).

≈ marks a conversion by molar mass, not a printed value.

Assay [1] relates to S. aureus RN4220. Kind of assay: MIC, agar plate dilution method, S. aureus RN4220. In kind it is cell-based, Staphylococcus aureus. The note with it: for MIC: Staphylococcus aureus, RN4220, S. aureus RN4220, Sensitive bacterium, read-out: minimal inhibitory concentration (MIC). As to the method: (§1) As for the representative compounds of a new aminoglycoside antibiotic of the present invention described in Examples, the minimal inhibitory concentration (MIC, μg/mL) was measured for various assay strains of bacteria using an agar plate dilution method in accordance with the method described in the Japan Society of Chemotherapy.

Assay [2] deals with S. aureus RN4220/pMS520. The assay can be described thus: MIC, agar plate dilution method, S. aureus RN4220/pMS520. In kind it is cell-based, Staphylococcus aureus. The note with it: for MIC: Staphylococcus aureus, MRSA, read-out: minimal inhibitory concentration (MIC), S. aureus RN4220/pMS520, MRSA. As to the method:
as §1

Assay [3] has as its system S. aureus MF490. Kind of assay: MIC, agar plate dilution method, S. aureus MF490. The assay is classed as cell-based, Staphylococcus aureus. Particulars: for MIC: Staphylococcus aureus, MRSA, read-out: minimal inhibitory concentration (MIC). The procedure:
as §1

The subject of assay [4] is E. faecium ATCC19434. Kind of assay: MIC, agar plate dilution method, E. faecium ATCC19434. In kind it is cell-based, Enterococcus faecium. Particulars: for MIC: Enterococcus faecium, ATCC19434, E. faecium ATCC19434, read-out: minimal inhibitory concentration (MIC). As to the method: as §1
For assay [5], the system named is E. coli JM109/pMW218. The assay can be described thus: MIC, agar plate dilution method, E. coli JM109/pMW218. In kind it is cell-based, Escherichia coli. The note with it: for MIC: Escherichia coli, JM109/PMW218, E. coli JM109/pMW218, Sensitive bacterium, read-out: minimal inhibitory concentration (MIC). As to the method:
as §1

Assay [6] concerns K. pneumoniae ATCC BAA-1705. The assay can be described thus: MIC, agar plate dilution method, K. pneumoniae ATCC BAA-1705. The assay is classed as cell-based, Klebsiella pneumoniae. The note with it: for MIC: Klebsiella pneumoniae, ATCCBAA1705, K. pneumoniae ATCC BAA-1705, KPC-producing strain, read-out: minimal inhibitory concentration (MIC). The procedure:
as §1

The test system of assay [7] is K. pneumoniae ATCC BAA-2146. Kind of assay: MIC, agar plate dilution method, K. pneumoniae ATCC BAA-2146. Particulars: for MIC: Klebsiella pneumoniae, ATCCBAA2146, K. pneumoniae ATCC BAA-2146, NDM-producing strain, read-out: minimal inhibitory concentration (MIC). In kind it is cell-based, Klebsiella pneumoniae. The procedure: as §1
For assay [8], the system named is A. baumannii ATCC BAA-1710. Kind of assay: MIC, agar plate dilution method, A. baumannii ATCC BAA-1710. In kind it is cell-based, Acinetobacter baumannii. Particulars: for MIC: Acinetobacter baumannii, ATCCBAA1710, A. baumannii ATCC BAA-1710, MDRA, read-out: minimal inhibitory concentration (MIC). The procedure:
as §1

Assay [9] deals with S. marcescens TH-0447. The assay can be described thus: MIC, agar plate dilution method, S. marcescens TH-0447. The assay is classed as cell-based, Serratia marcescens. The note with it: for MIC: Serratia marcescens, TH0447, S. marcescens TH-0447, AMK-resistant, read-out: minimal inhibitory concentration (MIC). The procedure:
as §1

Assay [10] deals with S. marcescens GN6944. Kind of assay: MIC, agar plate dilution method, S. marcescens GN6944. In kind it is cell-based, Serratia marcescens. Particulars: S. marcescens GN6944, GM-resistant; for MIC: Serratia marcescens, read-out: minimal inhibitory concentration (MIC). As to the method:
as §1

For assay [11], the system named is P. aeruginosa PAO1. Kind of assay: MIC, agar plate dilution method, P. aeruginosa PAO1. The note with it: for MIC: Pseudomonas aeruginosa, PAO1, P. aeruginosa PAO1, Sensitive bacterium, read-out: minimal inhibitory concentration (MIC). The assay is classed as cell-based, Pseudomonas aeruginosa. As to the method: as §1
Assay [12] relates to P. aeruginosa PAO1/GN315. The assay can be described thus: MIC, agar plate dilution method, P. aeruginosa PAO1/GN315. The assay is classed as cell-based, Pseudomonas aeruginosa. Particulars: for MIC: Pseudomonas aeruginosa, read-out: minimal inhibitory concentration (MIC), P. aeruginosa PAO1/GN315, AMK-resistant. As to the method: as §1
Assay [13] concerns P. aeruginosa MSC17707. The assay can be described thus: MIC, agar plate dilution method, P. aeruginosa MSC17707. The assay is classed as cell-based, Pseudomonas aeruginosa. Particulars: for MIC: Pseudomonas aeruginosa, MSC17707, P. aeruginosa MSC17707, AMK-resistant, read-out: minimal inhibitory concentration (MIC). As to the method:
as §1

The subject of assay [14] is P. aeruginosa MSC01035. The assay can be described thus: MIC, agar plate dilution method, P. aeruginosa MSC01035. Particulars: P. aeruginosa MSC01035, ABK-resistant; for MIC: Pseudomonas aeruginosa, read-out: minimal inhibitory concentration (MIC). In kind it is cell-based, Pseudomonas aeruginosa. As to the method: as §1

Turning to `CNC1C(O[C@H]2OC(CO)[C@@H](NC(CN)CN)[C@H](O)C2O)O[C@H]2CC(N)[C@@H](O[C@@H]3C(N)C[C@@H](N)C(O)[C@H]3O)OC2C1O` (some centres unmarked) [Compound A4-d, 4″-N-(1,3-diaminopropan-2-yl)apramycin], the MIC was determined as 2 µg/mL (≈ 3.27 µM) in [1]; 2 µg/mL (≈ 3.27 µM) in assay [2]; 4 µg/mL (≈ 6.54 µM) in assay [3]; 8 µg/mL (≈ 13.1 µM) in [4]; 1 µg/mL (≈ 1.63 µM) in assay [5]; 2 µg/mL (≈ 3.27 µM) in assay [6]. Moreover, the MIC came out at 1 µg/mL (≈ 1.63 µM) in assay [7]; 4 µg/mL (≈ 6.54 µM) in assay [8]; 8 µg/mL (≈ 13.1 µM) in [9]; 4 µg/mL (≈ 6.54 µM) in assay [10]; 4 µg/mL (≈ 6.54 µM) in assay [11]; 4 µg/mL (≈ 6.54 µM) in [12]. Further, the MIC came to 4 µg/mL (≈ 6.54 µM) in assay [13] and 8 µg/mL (≈ 13.1 µM) in assay [14].

Take `CNC1C(O[C@H]2OC(CO)[C@@H](N(CCN)CCN)[C@H](O)C2O)O[C@H]2CC(N)[C@@H](O[C@@H]3C(N)C[C@@H](N)C(O)[C@H]3O)OC2C1O` (some centres unmarked) [Compound A4-e, 4″-N,N-bis(2-aminoethyl)apramycin]: the MIC stood at 2 µg/mL (≈ 3.2 µM) in [1]; 2 µg/mL (≈ 3.2 µM) in assay [2]; 4 µg/mL (≈ 6.39 µM) in assay [3]; 16 µg/mL (≈ 25.6 µM) in [4]; 1 µg/mL (≈ 1.6 µM) in assay [5]; 2 µg/mL (≈ 3.2 µM) in assay [6]. In addition, the MIC in assay [7] came to 2 µg/mL (≈ 3.2 µM); in assay [8], 4 µg/mL (≈ 6.39 µM); in assay [9], 8 µg/mL (≈ 12.8 µM); in assay [10] it was 8 µg/mL (≈ 12.8 µM); in assay [11], 4 µg/mL (≈ 6.39 µM); in assay [12], 4 µg/mL (≈ 6.39 µM). For the same compound, the MIC in assay [13] and in assay [14] was 8 µg/mL (≈ 12.8 µM) each time.

In the case of `CNC1C(O[C@H]2OC(CO)[C@@H](N[C@H]3CC[C@@H](N)CC3)[C@H](O)C2O)O[C@H]2CC(N)[C@@H](O[C@@H]3C(N)C[C@@H](N)C(O)[C@H]3O)OC2C1O` (stereo partly drawn) [Compound A4-f, 4″-N-(cis-1,4-4-aminocyclohexyl)apramycin], the MIC turned out to be 4 µg/mL (≈ 6.28 µM) in assay [1]; 4 µg/mL (≈ 6.28 µM) in assay [2]; 8 µg/mL (≈ 12.6 µM) in assay [3]; 32 µg/mL (≈ 50.3 µM) in [4]; 1 µg/mL (≈ 1.57 µM) in assay [5]; 2 µg/mL (≈ 3.14 µM) in assay [6]. Further, the MIC in [7] turned out to be 1 µg/mL (≈ 1.57 µM); in [8], 32 µg/mL (≈ 50.3 µM); in assay [9], 16 µg/mL (≈ 25.1 µM); in assay [10], 8 µg/mL (≈ 12.6 µM); in assay [11] it was 16 µg/mL (≈ 25.1 µM); in [12], 16 µg/mL (≈ 25.1 µM). The MIC in assay [13] and in [14] was 16 µg/mL (≈ 25.1 µM) throughout.

Consider `CNC1C(O[C@H]2OC(CO)[C@@H](NC3CNC3)[C@H](O)C2O)O[C@H]2CC(N)[C@@H](O[C@@H]3C(N)C[C@@H](N)C(O)[C@H]3O)OC2C1O` (some centres unmarked) [Compound A4-h, 4″-N-(azetidin-3-yl)apramycin], for which the “minimal inhibitory concentration (MIC)” value in assay [1] (S. aureus RN4220, Sensitive bacterium) stood at 4 µg/mL (≈ 6.73 µM); in assay [2] (S. aureus RN4220/pMS520, MRSA), 4 µg/mL (≈ 6.73 µM); in assay [3] (S. aureus MF490, MRSA), 16 µg/mL (≈ 26.9 µM); in assay [4] (E. faecium ATCC19434), 32 µg/mL (≈ 53.8 µM); in assay [5] (E. coli JM109/pMW218, Sensitive bacterium) it was 2 µg/mL (≈ 3.36 µM); in assay [6] (K. pneumoniae ATCC BAA-1705, KPC-producing strain) it was 4 µg/mL (≈ 6.73 µM). Besides, the “minimal inhibitory concentration (MIC)” value in assay [7] (K. pneumoniae ATCC BAA-2146, NDM-producing strain) worked out at 2 µg/mL (≈ 3.36 µM); in assay [8] (A. baumannii ATCC BAA-1710, MDRA) it was 16 µg/mL (≈ 26.9 µM); in assay [9] (S. marcescens TH-0447, AMK-resistant) it was 16 µg/mL (≈ 26.9 µM); in [10], 8 µg/mL (≈ 13.5 µM); in assay [11] (P. aeruginosa PAO1, Sensitive bacterium), 8 µg/mL (≈ 13.5 µM); in assay [12] (P. aeruginosa PAO1/GN315, AMK-resistant), 16 µg/mL (≈ 26.9 µM). Moreover, the “minimal inhibitory concentration (MIC)” value in assay [13] (P. aeruginosa MSC17707, AMK-resistant) was found to be 16 µg/mL (≈ 26.9 µM); in assay [14], 16 µg/mL (≈ 26.9 µM).
